Legend:
Type in all cases: cell-based
[1] = system: Saos osteosarcoma cells; experiment: SRB assay (48 h) on Saos cells
Procedure: 3 × 10^3 Capan2 cells, 2 × 10^3 Saos cells and 8 × 10^3 L428 were plated to 96 well plates. Cells were treated with the compounds in the concentrations for 48 h. Then for Capan2 and Saos SRB assay was performed, L428 cells were counted using a Burker chamber. Data is represented as average ± SD, from three biological replicates; individual assays were performed in duplicates. Values were normalized for vehicle treated cells, absorbance for vehicle treated cells equals to 1. Normality was checked using the Shapiro-Wilk test. The Saos Os-7 dataset was normalized using the Box-Cox method, other datasets had normal distribution. Each complex was individually assessed for statistical significance using One-way ANOVA test followed by Dunnett’s post hoc test; all values were compared to the values of the lowest concentration. For better visibility the p values are presented in an excel sheet at https://figshare.com/s/2c942a812caea8869a67. Non-linear regression was performed on the Capan2 and Saos datasets.
Saos cells were maintained in DMEM (4.5 g/L glucose) medium supplemented with 10% fetal calf serum, 2 mM glutamine, 1% penicillin-streptomycin.
The assay was performed similar to ([Kovács et al., 2019]). Cells were seeded in 96 well plates the day before the assay. Cells were treated with the compounds for 48 h. Cells were fixed with 10% trichloroacetic acid (TCA). Fixed cells were washed in distilled water 3 times followed by staining with SRB (0.4 m/V% dissolved in 1% acetic acid) for 10 min. Stained cells were washed in 1% acetic acid 5 times; acetic acid was removed and cells were left to dry. Protein-bound SRB was released by adding 100 µl 10 mM Tris base. Plates were measured in a plate photometer (Thermo Scientific Multiscan GO spectrophotometer, Waltham, MA, United States) at 540 nm. On each plate wells were designed to contain vehicle-treated cells. In calculations the readings for these wells was considered as 1 and all readings were expressed relative to these values.
Statistical analysis was performed using 8.0.1 version of Graphpad Prism. Values were tested for normal distribution using the D’Agostino and Pearson normality test. When necessary, values were log normalized or were normalized using the Box-Cox normalization method ([Box and Cox, 1964]) as indicated in the figure captions. Non-linear regression was performed using the built-in “[Inhibitor] vs. response—Variable slope (four parameters), least square fit” utility of Graphpad that yielded IC50 and Hill slope values.

[2] = system: A2780 ovarian cancer cells; experiment: MTT reduction assay (rapid toxicity, 4 h) on A2780 cells; conditions: 4 h treatment
Procedure: First, we assessed a set of osmium complexes (similar to Ia [[Kacsir et al., 2022]) in Figure 1] and their sugar-derived ligands, in which the benzoyl protective groups on the carbohydrate moiety were replaced by aliphatic acyl groups of different chain length (straight chain C3-C7–CO). Osmium was selected as a central ion, since osmium complexes had the best biological activity in our previous studies ([Balázs et al., 2022]; [Kacsir et al., 2022]). These compounds were tested on A2780 ovarian cancer cells for toxicity and cytostasis. The therapy of ovarian cancer is centered around platinum compounds ([Brown et al., 2019]; [Sipos et al., 2021]), therefore, it was logical to use a cellular model of ovarian cancer for the initial testing of the compounds. Toxicity was assessed using the MTT assay that measures the activity of mitochondrial complex I. We chose 4 h long treatment as in an MTT assay this time point is suitable to detect rapid, direct toxicity. Cytostasis was assessed after 48 h of treatment using the SRB assay that assesses protein content that corresponds to cell count. The characteristics of the compounds are detailed in Table 2.
3 × 10^3 A2780 cells, were plated to 96 well plates. Cells were treated with the compounds in the concentrations indicated for either 4 h for an MTT assay or for 48 h for an SRB assay. Data is represented as average ± SD, from three biological replicates; individual assays were performed in duplicates. Values were normalized for vehicle treated cells, absorbance for vehicle treated cells equals to 1. […] Except for the Os-6 complex, Two-way ANOVA test was performed and all values were compared with each other (Tukey’s post hoc test). […] Non-linear regression was performed on the data.
(§1) 3 × 10^3 A2780 cells, 2 × 10^3 ID8 cells and 4 × 10^3 primary fibroblasts were plated to 96 well plates. Cells were treated with the compounds in the concentrations indicated for either 4 h for an MTT assay or for 48 h for an SRB assay. Data is represented as average ± SD, from three biological replicates; individual assays were performed in duplicates. Values were normalized for vehicle treated cells, absorbance for vehicle treated cells equals to 1. Statistical significance was assessed using two-way ANOVA test comparing the free ligand and each complex as a complex-ligand pair. Before the test normality was assessed using the D’Agostino-Pearson test. The ID8 SRB Ir-7+L-7 dataset had lognormal distribution. […] All other datasets had normal distribution. For better visibility the p values are presented in an excel sheet at https://figshare.com/s/2c942a812caea8869a67. Non-linear regression was performed on the A2780 SRB and the ID8 SRB datasets.
(§2) MTT reduction assay measures the activity of mitochondrial complex I and can be used to detect toxicity ([Virág et al., 1998]; [Henslee et al., 2016]). The assay was performed similar to ([Bakondi et al., 2003]). Briefly, cells were plated in 96 well plates the day before the assay. Cells were treated with the compounds for 4 h, then MTT was added in 0.5 mg/ml final concentration and cells were incubated at 37°C in a cell incubator. Culture media was removed and the reduced MTT dye was dissolved in dimethyl-sulfoxide (DMSO) and plates were measured in a plate photometer (Thermo Scientific Multiscan GO spectrophotometer, Waltham, MA, United States) at 540 nm. On each plate wells were designed to contain untreated/vehicle-treated cells. In calculations the readings for these wells was considered as 1 and all readings were expressed relative to these values.

[3] = system: primary dermal fibroblasts; experiment: MTT reduction assay (4 h) on primary fibroblasts; conditions: primary human dermal fibroblasts
Procedure: as §1
Human primary dermal fibroblasts were cultured in low glucose DMEM (1 g/L glucose) medium supplemented with 20% fetal calf serum, 2 mM glutamine, 1% penicillin-streptomycin.
as §2

| Compound | IC50 [1] | SAOS SRB Max. (maximal inhibition) [1] | A2780 MTT Max. (maximal inhibition) [2] | Fibroblast MTT Max. (maximal inhibition) [3] |
| --- | --- | --- | --- | --- |
| Cc1c(C)c(C)[c-](C)c1C.F[P-](F)(F)(F)(F)F.O=C(OCC1OC(n2cc(-c3ccc4ccccc4n3)nn2)C(OC(=O)c2ccccc2)C(OC(=O)c2ccccc2)C1OC(=O)c1ccccc1)c1ccccc1.[Cl][Ir+2] (mixture of isomers) [Ir-7] | 1.58 µM | 33% | 23.2% | 12.81% |
| Cc1ccc(C(C)C)cc1.F[P-](F)(F)(F)(F)F.O=C(OCC1OC(n2cc(-c3ccc4ccccc4n3)nn2)C(OC(=O)c2ccccc2)C(OC(=O)c2ccccc2)C1OC(=O)c1ccccc1)c1ccccc1.[Cl][Ru+] (mixture of isomers) [Ru-7] | 1.18 µM | 33.64% | 23.4% | 23.93% |
| Cc1ccc(C(C)C)cc1.F[P-](F)(F)(F)(F)F.O=C(OCC1OC(n2cc(-c3ccc4ccccc4n3)nn2)C(OC(=O)c2ccccc2)C(OC(=O)c2ccccc2)C1OC(=O)c1ccccc1)c1ccccc1.[Cl][Os+] (mixture of isomers) [Os-7] | 1.29 µM | 48.04% | 33.0% | 30.97% |
